pIC50: −log10 of the molar value. Bridge positions count the residues as written; N and C are the ends. Square brackets hold non-standard residues; d marks the D form. Peptide text beside a SMILES is read from it. * marks the point of attachment. ξ: configuration not given here. Ala(morpholin-4-yl) = N[C@@H](CN1CCOCC1)C(=O)O; Phe(4-COOH) = N[C@@H](Cc1ccc(C(=O)O)cc1)C(=O)O; Bip = N[C@@H](Cc1ccc(-c2ccccc2)cc1)C(=O)O; NH(CH2)14COOH = O=C(O)CCCCCCCCCCCCCCN*; Phe(3-Me) = Cc1cccc(C[C@H](N)C(=O)O)c1; NH(CH2)12COOH = O=C(O)CCCCCCCCCCCCN*; Val(3-OH) = CC(C)(O)[C@H](N)C(=O)O; 4Pal = N[C@@H](Cc1ccncc1)C(=O)O; Cha = N[C@@H](CC1CCCCC1)C(=O)O; Cit = NC(=O)NCCC[C@H](N)C(=O)O; Thr(3ξ) = CC(O)[C@H](N)C(=O)O; Ala(CN) = N#CC[C@H](N)C(=O)O; 12Ado = NCCCCCCCCCCCC(=O)O; Carboxymethyl = O=C(O)C*; Orn = NCCC[C@H](N)C(=O)O; Aun = NCCCCCCCCCCC(=O)O; Dab = NCC[C@H](N)C(=O)O; Nva = CCC[C@H](N)C(=O)O; AEEA = NCCOCCOCC(=O)O; X11 = CC(C)(F)C(=O)*

T1 sequence (Q15116 25-288): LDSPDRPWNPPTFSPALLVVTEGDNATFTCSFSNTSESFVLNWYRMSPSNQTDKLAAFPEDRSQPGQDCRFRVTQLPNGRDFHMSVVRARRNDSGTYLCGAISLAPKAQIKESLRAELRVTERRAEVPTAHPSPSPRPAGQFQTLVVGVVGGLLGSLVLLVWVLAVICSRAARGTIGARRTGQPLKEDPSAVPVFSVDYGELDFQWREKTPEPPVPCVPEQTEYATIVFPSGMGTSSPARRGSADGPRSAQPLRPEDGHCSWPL

This assay addresses T1, PD-1/PD-L1 interaction (PE-labeled human PD-L1-Ig binding to Jurkat cell line over-expressing human PD-1) (Homo sapiens, UniProt Q15116).
T1 construct: expressed in transfected cells; host or cells: Jurkat
Nature of the assay: Jurkat-PD-1 Cell Binding High-Content Screening Assay (CBA). Format: cell-based. The conditions noted are these: Jurkat cell line over-expressing human PD-1; PE-labeled PD-L1-Ig 20 nM final; read-out: Jurkat hPD1-PDL1 IC50. The essentials:
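Binding of fluorescent PD-L1-Ig (20 nM final) to Jurkat-PD-1 cells was measured by automated imaging after 1 h, following a 2 h compound pre-treatment at 37° C.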
On to `Cc1cccc(C[C@@H]2NC(=O)[C@H](CC(=O)O)NC(=O)[C@H](Cc3ccc(OCC(=O)O)cc3)NC(=O)[C@H](CN3CCOCC3)NC(=O)CSC[C@@H](C(=O)N[C@@H](CCN)C(=O)NCCCCCCCCCCC(=O)O)NC(=O)[C@H](CCCCN)NC(=O)[C@H](C(C)C)NC(=O)[C@H](CC3CCCCC3)NC(=O)[C@H](CCN)NC(=O)[C@@H](CC(C)C)NC(=O)[C@H](CCCN)NC(=O)[C@H](C(C)C)NC(=O)[C@H](Cc3ccc(-c4ccccc4)cc3)NC(=O)[C@H](C(C)C)NC2=O)c1` [Compound 2039] ({CH2CO}-[Ala(morpholin-4-yl)]Y(Carboxymethyl)D[Phe(3-Me)]V[Bip]V[Orn][dL][Dab][Cha]VKC[Dab][Aun]-OH; thioether N-14), for which the pIC50 (in general, −log10 of the IC50, conventionally taken in molar units) was 7.71.

In the case of `CC(C)C[C@H]1NC(=O)[C@H](CCCN)NC(=O)[C@H](Cc2ccc(O)cc2)NC(=O)[C@H](Cc2ccc(-c3ccccc3)cc2)NC(=O)[C@H](C(C)C)NC(=O)[C@H](Cc2c[nH]c3ccccc23)NC(=O)[C@H](CC(=O)O)NC(=O)[C@H](Cc2ccc(OCC(=O)O)cc2)NC(=O)[C@H](CC(N)=O)NC(=O)CSC[C@@H](C(=O)N[C@@H](CCN)C(=O)NCCCCCCCCCCC(=O)O)NC(=O)[C@H](CC#N)NC(=O)[C@H](C(C)C)NC(=O)[C@H](CC2CCCCC2)NC(=O)[C@H](CCN)NC1=O` [Compound 3425] ({CH2CO}-NY(Carboxymethyl)DWV[Bip]Y[Orn][dL][Dab][Cha]V[Ala(CN)]C[Dab][Aun]-OH; thioether N-14), the pIC50 was 7.26.

For the molecule `Cc1cccc(C[C@@H]2NC(=O)[C@H](CC(=O)O)NC(=O)[C@H](Cc3ccc(OCC(=O)O)cc3)NC(=O)[C@H](Cc3ccncc3)NC(=O)CSC[C@@H](C(=O)N[C@@H](CCCN)C(=O)N[C@@H](CO)C(=O)NCCCCCCCCCCCC(=O)O)NC(=O)[C@H](C(C)O)NC(=O)[C@H](C(C)C)NC(=O)[C@H](CC3CCCCC3)NC(=O)[C@H](CCN)NC(=O)[C@@H](CC(C)C)NC(=O)[C@H](CCCN)NC(=O)[C@H](CCCNC(=O)C(C)(C)F)NC(=O)[C@H](Cc3ccc(-c4ccccc4)cc3)NC(=O)[C@H](Cc3ccc(O)cc3)NC2=O)c1` (stereo partly drawn) [Compound 3584] ({CH2CO}-[4Pal]Y(Carboxymethyl)D[Phe(3-Me)]Y[Bip][Orn](X11)[Orn][dL][Dab][Cha]V[Thr(3ξ)]C[Orn]S[12Ado]-OH; thioether N-14), the pIC50 is 7.42.

In the case of `CC[C@H](C)[C@@H]1NC(=O)[C@H](Cc2ccc(-c3ccccc3)cc2)NC(=O)[C@H](C(C)C)NC(=O)[C@H](Cc2cccc(C)c2)NC(=O)[C@H](CC(=O)O)NC(=O)[C@H](Cc2ccc(C(=O)O)cc2)NC(=O)[C@H](Cc2ccncc2)NC(=O)CSC[C@@H](C(=O)N[C@@H](CCCN)C(=O)NCCCCCCCCCCC(=O)O)NC(=O)[C@H]([C@@H](C)O)NC(=O)[C@H](C(C)C)NC(=O)[C@H](CC2CCCCC2)NC(=O)[C@H](CCN)NC(=O)[C@@H](CC(C)C)NC(=O)[C@H](CCCN)NC1=O` [Compound 1184], the pIC50 is 7.29.

In the case of `Cc1cccc(C[C@@H]2NC(=O)[C@H](CC(=O)O)NC(=O)[C@H](Cc3ccc(OCC(=O)O)cc3)NC(=O)[C@H](Cc3ccc(C(=O)O)cc3)NC(=O)CSC[C@@H](C(=O)N[C@@H](CCN)C(=O)NCCCCCCCCCCC(=O)O)NC(=O)[C@H]([C@@H](C)O)NC(=O)[C@H](C(C)C)NC(=O)[C@H](CC3CCCCC3)NC(=O)[C@H](CCN)NC(=O)[C@@H](CC(C)C)NC(=O)[C@H](CCCN)NC(=O)[C@H](CCCNC(N)=O)NC(=O)[C@H](Cc3ccc(-c4ccccc4)cc3)NC(=O)[C@H](C(C)C)NC2=O)c1` [Compound 2829] ({CH2CO}-[Phe(4-COOH)]Y(Carboxymethyl)D[Phe(3-Me)]V[Bip][Cit][Orn][dL][Dab][Cha]VTC[Dab][Aun]-OH; thioether N-14), the pIC50 was 6.79.

With `Cc1cccc(C[C@@H]2NC(=O)[C@H](CC(=O)O)NC(=O)[C@H](Cc3ccc(OCC(=O)O)cc3)NC(=O)[C@H](CCCNC(=N)N)NC(=O)CSC[C@@H](C(=O)NCCOCCOCC(=O)NCCCCCCCCCCC(=O)O)NC(=O)[C@H](C(C)O)NC(=O)[C@H](C(C)C)NC(=O)[C@H](CC3CCCCC3)NC(=O)[C@H](CCN)NC(=O)[C@@H](CC(C)C)NC(=O)[C@H](CCCN)NC(=O)[C@H](Cc3ccc(OCC(=O)O)cc3)NC(=O)[C@H](Cc3ccc(-c4ccccc4)cc3)NC(=O)[C@H](Cc3ccc(C(=O)O)cc3)NC2=O)c1` (stereo partly drawn) [Compound 3479] ({CH2CO}-RY(Carboxymethyl)D[Phe(3-Me)][Phe(4-COOH)][Bip]Y(Carboxymethyl)[Orn][dL][Dab][Cha]V[Thr(3ξ)]C[AEEA][Aun]-OH; thioether N-14), the pIC50 was 7.22.

As to `CC[C@H](C)[C@@H]1NC(=O)[C@H](Cc2ccc(-c3ccccc3)cc2)NC(=O)[C@H](C(C)C)NC(=O)[C@H](Cc2c[nH]c3ccccc23)NC(=O)[C@H](CC(=O)O)NC(=O)[C@H](Cc2ccc(OCC(=O)O)cc2)NC(=O)[C@H](Cc2ccc(OCC(=O)O)cc2)NC(=O)CSC[C@@H](C(=O)NCCOCCOCC(=O)N[C@@H](CCN)C(=O)NCCCCCCCCCCC(=O)O)NC(=O)[C@H](CCCNC(=N)N)NC(=O)[C@H](C(C)C)NC(=O)[C@H](CC2CCCCC2)NC(=O)[C@H](CCN)NC(=O)[C@@H](CC(C)C)NC(=O)[C@H](CCCN)NC1=O` [Compound 2656] ({CH2CO}-Y(Carboxymethyl)Y(Carboxymethyl)DWV[Bip]I[Orn][dL][Dab][Cha]VRC[AEEA][Dab][Aun]-OH; thioether N-14), the pIC50 is 8.09.

Consider `CCC[C@@H]1NC(=O)CSC[C@@H](C(=O)N[C@@H](CCN)C(=O)NCCCCCCCCCCCCC(=O)O)NC(=O)[C@H](CO)NC(=O)[C@H](C(C)(C)O)NC(=O)[C@H](CC2CCCCC2)NC(=O)[C@H](CCN)NC(=O)[C@@H](CC(C)C)NC(=O)[C@H](CCCN)NC(=O)[C@H](Cc2ccc(OCC(=O)O)cc2)NC(=O)[C@H](Cc2ccc(-c3ccccc3)cc2)NC(=O)[C@H](Cc2ccc(OCC(=O)O)cc2)NC(=O)[C@H](Cc2cccc(C)c2)NC(=O)[C@H](CC(=O)O)NC(=O)[C@H](Cc2ccc(OCC(=O)O)cc2)NC1=O` [Compound 2226] ({CH2CO}-[Nva]Y(Carboxymethyl)D[Phe(3-Me)]Y(Carboxymethyl)[Bip]Y(Carboxymethyl)[Orn][dL][Dab][Cha][Val(3-OH)]SC[Dab]-{NH(CH2)12COOH}; thioether N-14), for which the pIC50 is 7.56.

In the case of `Cc1cccc(C[C@@H]2NC(=O)[C@H](CC(=O)O)NC(=O)[C@H](Cc3ccc(OCC(=O)O)cc3)NC(=O)[C@H](Cc3ccc(OCC(=O)O)cc3)NC(=O)CSC[C@@H](C(=O)N[C@@H](CCN)C(=O)NCCCCCCCCCCC(=O)O)NC(=O)[C@H](CO)NC(=O)[C@H](C(C)C)NC(=O)[C@H](CC3CCCCC3)NC(=O)[C@H](CCN)NC(=O)[C@@H](CC(C)C)NC(=O)[C@H](CCCN)NC(=O)[C@H](Cc3ccc(OCC(=O)O)cc3)NC(=O)[C@H](Cc3ccc(-c4ccccc4)cc3)NC(=O)[C@H](C(C)C)NC2=O)c1` [Compound 2089] ({CH2CO}-Y(Carboxymethyl)Y(Carboxymethyl)D[Phe(3-Me)]V[Bip]Y(Carboxymethyl)[Orn][dL][Dab][Cha]VSC[Dab][Aun]-OH; thioether N-14), the pIC50 was 7.36.

As for `Cc1cccc(C[C@@H]2NC(=O)[C@H](CC(=O)O)NC(=O)[C@H](Cc3ccc(OCC(=O)O)cc3)NC(=O)[C@H](C)NC(=O)CSC[C@@H](C(=O)N[C@@H](CCN)C(=O)NCCOCCOCC(=O)NCCOCCOCC(=O)NCCOCCOCC(=O)NCCOCCOCC(=O)NCCCCCCCCCCCCCCC(=O)O)NC(=O)[C@H](CO)NC(=O)[C@H](C(C)(C)O)NC(=O)[C@H](CC3CCCCC3)NC(=O)[C@H](CCN)NC(=O)[C@@H](CC(C)C)NC(=O)[C@H](CCCN)NC(=O)[C@H](Cc3ccc(OCC(=O)O)cc3)NC(=O)[C@H](Cc3ccc(-c4ccccc4)cc3)NC(=O)[C@H](Cc3ccc(OCC(=O)O)cc3)NC2=O)c1` [Compound 3869] ({CH2CO}-AY(Carboxymethyl)D[Phe(3-Me)]Y(Carboxymethyl)[Bip]Y(Carboxymethyl)[Orn][dL][Dab][Cha][Val(3-OH)]SC[Dab][AEEA][AEEA][AEEA][AEEA]-{NH(CH2)14COOH}; thioether N-14), the pIC50 was 7.15.

In the case of `CC[C@H](C)[C@@H]1NC(=O)[C@H](Cc2ccc(-c3ccccc3)cc2)NC(=O)[C@H](C(C)C)NC(=O)[C@H](Cc2c[nH]c3ccccc23)NC(=O)[C@H](CC(=O)O)NC(=O)[C@H](Cc2ccc(OCC(=O)O)cc2)NC(=O)[C@H](Cc2ccncc2)NC(=O)CSC[C@@H](C(=O)N[C@@H](CCCCN)C(=O)NCCOCCOCC(=O)NCCCCCCCCCCC(=O)O)NC(=O)[C@H]([C@@H](C)O)NC(=O)[C@H](C(C)C)NC(=O)[C@H](CC(C)C)NC(=O)[C@H](CCN)NC(=O)[C@@H](CC(C)C)NC(=O)[C@H](CCCN)NC1=O` [Compound 1160] ({CH2CO}-[4Pal]Y(Carboxymethyl)DWV[Bip]I[Orn][dL][Dab]LVTCK[AEEA][Aun]-OH; thioether N-14), the pIC50 was 7.68.

On to `COC[C@@H]1NC(=O)CSC[C@@H](C(=O)N[C@@H](CCN)C(=O)NCCOCCOCC(=O)NCCCCCCCCCCC(=O)O)NC(=O)[C@H](CO)NC(=O)[C@H](C(C)(C)O)NC(=O)[C@H](CC2CCCCC2)NC(=O)[C@H](CCN)NC(=O)[C@@H](CC(C)C)NC(=O)[C@H](CCCN)NC(=O)[C@H](Cc2ccc(OCC(=O)O)cc2)NC(=O)[C@H](Cc2ccc(-c3ccccc3)cc2)NC(=O)[C@H](Cc2ccc(OCC(=O)O)cc2)NC(=O)[C@H](Cc2cccc(C)c2)NC(=O)[C@H](CC(=O)O)NC(=O)[C@H](Cc2ccc(OCC(=O)O)cc2)NC1=O` [Compound 2239] ({CH2CO}-S(Me)Y(Carboxymethyl)D[Phe(3-Me)]Y(Carboxymethyl)[Bip]Y(Carboxymethyl)[Orn][dL][Dab][Cha][Val(3-OH)]SC[Dab][AEEA][Aun]-OH; thioether N-14), for which the pIC50 was 8.80.

These data come from patent publication US20260022142A1, “MACROCYCLIC IMMUNOMODULATORS” (Bristol-Myers Squibb Company, priority 2022, published 2026).
